Source: patent US20240287076A1, “COMPOUNDS FOR TARGETING DEGRADATION OF BRUTON'S TYROSINE KINASE” (BIOGEN MA INC., priority 2021, published 2024)

Molecular target: T1, BTK (Homo sapiens, UniProt Q06187)
T1 construct: The GM01501.3 cell line endogenously expresses BTK with a HiBiT fusion tag via CRISPR knock-in at its C-terminal region; endogenous in cells; host or cells: GM01501.3 (GM01501 cells engineered by CRISPR knock-in of HiBiT at the BTK locus)
Test: BTK degradation assay using the HiBiT Method (Nano-Glo HiBiT Lytic Assay, GM01501.3 cells)
Assay type: cell-based
Details: HiBiT Degradation on GM01501.3 BTK @ 6 hours
Procedure: Selected compounds were tested in a BTK degradation assay using the HiBiT Method. Park Memorial Institute (RPM1) 1640 Medium with phenol red, L-Glutamine, Sodium Pyruvate, and fetal bovine serum (FBS) were purchased from Gibco (Grand Island, NY, USA). Nano-Glo® HiBiT Lytic Assay System was purchased from Promega (Madison, WI, USA). GM01501 cells were obtained from the NIGMS Human Genetic Cell Repository at the Coriell Institute for Medical Research. The GM01501.3 cell line endogenously expresses BTK with a HiBiT fusion tag via CRISPR knock-in at its C-terminal region. It was engineered by electroporation with the Neon Transfection System (Themo Fisher Scientific), according to manufacturer indications. Electroporation conditions: 1 pulse of 1,350 V for 30 ms for 0.5×10_6 cells. Cell culture flasks and 384-well microplates were acquired from VWR (Radnor, PA, USA). BTK degradation was evaluated by quantification of luminescent signal using Nano-Glo® HiBiT Lytic Assay kit. Test compounds were added to the 384-well plate from a top concentration of 10 μM with 11 points, half log titration in duplicates. GM01501.3 cells were added into 384-well plates at a cell density of 10,000 cells per well in a total volume of 30 μl. The plates were kept at 37° C. with 5% CO2 for 6 hours. Negative control wells included cells treated with DMSO only and positive control wells included only growing media, without Nano-Glo® HiBiT Lytic reagent. After a 6-hour incubation, Nano-Glo® HiBiT Lytic Assay reagent was added to the cells following manufacturer indications. Luminescence was acquired on EnVision™ Multilabel Reader (PerkinElmer, Santa Clara, CA, USA). […] “++++” represents a DC50 value of less than 100 nM. “+++” represents a DC50 value of 100 nM-500 nM. “++” represents a DC50 value of 500 nM-1000 nM. “+” represents a DC50 value of greater than 1000 nM.

T1 sequence (Q06187 whole entry, the tested form may be a part): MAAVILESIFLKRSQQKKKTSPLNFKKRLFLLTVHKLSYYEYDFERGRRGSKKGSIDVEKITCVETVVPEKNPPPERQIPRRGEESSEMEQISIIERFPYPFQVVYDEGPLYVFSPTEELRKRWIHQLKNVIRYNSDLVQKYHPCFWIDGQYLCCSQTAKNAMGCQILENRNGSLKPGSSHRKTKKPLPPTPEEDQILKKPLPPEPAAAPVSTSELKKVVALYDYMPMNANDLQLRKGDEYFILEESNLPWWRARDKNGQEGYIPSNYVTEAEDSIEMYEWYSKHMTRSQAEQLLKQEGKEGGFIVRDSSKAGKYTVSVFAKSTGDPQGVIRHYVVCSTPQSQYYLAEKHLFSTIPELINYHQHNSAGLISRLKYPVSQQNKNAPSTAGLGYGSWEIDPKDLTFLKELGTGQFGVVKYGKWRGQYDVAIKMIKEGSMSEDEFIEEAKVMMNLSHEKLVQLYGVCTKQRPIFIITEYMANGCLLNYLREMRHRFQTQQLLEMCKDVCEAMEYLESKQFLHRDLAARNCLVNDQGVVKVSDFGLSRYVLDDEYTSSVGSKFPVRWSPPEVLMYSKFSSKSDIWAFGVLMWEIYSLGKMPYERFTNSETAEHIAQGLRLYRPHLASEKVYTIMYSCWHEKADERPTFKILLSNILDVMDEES

Row | SMILES | DC50
1 | Cc1cc(-c2ncnn3cc(-c4ccc(OCCCCN5CCC(c6ccc(NC7CCC(=O)NC7=O)cc6)CC5)cc4)cc23)ccc1CNC(=O)c1nc(C(C)(C)C)ns1 (stereo not drawn) [Example 112, 3-tert-butyl-N-[[4-[6-[4-[4-[4-[4-[(2,6-dioxo-3-piperidyl)amino]phenyl]-1-piperidyl]butoxy]phenyl]pyrrolo[2,1-f][1,2,4]triazin-4-yl]-2-methyl-phenyl]methyl]-1,2,4-thiadiazole-5-carboxamide] | < 100 nM
2 | Cc1cc(-c2ncnn3cc(-c4ccc(CN5CCC(c6ccc(NC7CCC(=O)NC7=O)cc6)CC5)cc4)cc23)ccc1CNC(=O)c1ccc(C(C)C)nn1 (stereo not drawn) [Example 92, N-[[4-[6-[4-[[4-[4-[(2,6-dioxo-3-piperidyl)amino]phenyl]-1-piperidyl]methyl]phenyl]pyrrolo[2,1-f][1,2,4]triazin-4-yl]-2-methyl-phenyl]methyl]-6-isopropyl-pyridazine-3-carboxamide] | < 100 nM
3 | CC(C)(C)c1nc(C(=O)NCc2ccc(-c3ncnn4cc(-c5ccc(CN6CCC(c7ccc(C8CCC(=O)NC8=O)cc7)CC6)cc5)cc34)cc2)no1 (stereo not drawn) [Example 40, 5-tert-butyl-N-[[4-[6-[4-[[4-[4-(2,6-dioxo-3-piperidyl)phenyl]-1-piperidyl]methyl]phenyl]pyrrolo[2,1-f][1,2,4]triazin-4-yl]phenyl]methyl]-1,2,4-oxadiazole-3-carboxamide] | < 100 nM
4 | Cc1cc(-c2ncnn3cc(-c4ccc5c(c4)CN(CCc4ccc(NC6CCC(=O)NC6=O)cc4)CC5)cc23)ccc1CNC(=O)c1noc(C(C)(C)C)n1 (stereo not drawn) [Example 60, 5-tert-butyl-N-[[4-[6-[2-[2-[4-[(2,6-dioxo-3-piperidyl)amino]phenyl]ethyl]-3,4-dihydro-1H-isoquinolin-7-yl]pyrrolo[2,1-f] [1,2,4]triazin-4-yl]-2-imethyl-phenyl]methyl]-1,2,4-oxadiazole-3-carboxamide] | < 100 nM
5 | Cc1cc(-c2ncnn3cc(-c4ccc(CN5CCC(c6ccc(NC7CCC(=O)NC7=O)nc6)CC5)cc4)cc23)ccc1CNC(=O)c1noc(C(C)(C)C)n1 (stereo not drawn) [Example 13, 5-tert-butyl-N-[[4-[6-[4-[[4-[6-[(2,6-dioxo-3-piperidyl)amino]-3-pyridyl]-1-piperidyl]methyl]phenyl]pyrrolo[2,1-f][1,2,4]triazin-4-yl]-2-methyl-phenyl]methyl]-1,2,4-oxadiazole-3-carboxamide] | < 100 nM
6 | Cc1ccc(C(=O)NCc2ccc(-c3ncnn4cc(-c5ccc(CN6CCC(c7ccc(NC8CCC(=O)NC8=O)cc7)CC6)cc5)cc34)cc2C)cc1 (stereo not drawn) [Example 68, N-[[4-[6-[4-[[4-[4-[(2,6-dioxo-3-piperidyl)amino]phenyl]-1-piperidyl]methyl]phenyl]pyrrolo[2,1-f][1,2,4]triazin-4-yl]-2-methyl-phenyl]methyl]-4-methyl-benzamide] | < 100 nM
7 | Cc1cc(-c2ncnn3cc(-c4ccc(CN5CCC(c6ccc(NC7CCC(=O)NC7=O)cc6)CC5)cc4)cc23)ccc1CNC(=O)c1ccc(C(C)C)nc1 (stereo not drawn) [Example 69, N-[[4-[6-[4-[[4-[4-[(2,6-dioxo-3-piperidyl)amino]phenyl]-1-piperidyl]methyl]phenyl]pyrrolo[2,1-f][1,2,4]triazin-4-yl]-2-methyl-phenyl]methyl]-6-isopropyl-pyridine-3-carboxamide] | < 100 nM
8 | Cc1cc(-c2ncnn3cc(-c4ccc(CN5CCCC(c6ccc(NC7CCC(=O)NC7=O)cc6)C5)cc4)cc23)ccc1CNC(=O)c1noc(C(C)(C)C)n1 (stereo not drawn) [Example 7, 5-tert-butyl-N-[[4-[6-[4-[[3-[4-[(2,6-dioxo-3-piperidyl)amino]phenyl]-1-piperidyl]methyl]phenyl]pyrrolo[2,1-f][1,2,4]triazin-4-yl]-2-methyl-phenyl]methyl]-1,2,4-oxadiazole-3-carboxamide] | < 100 nM
9 | Cc1cc(-c2ncnn3cc(-c4ccc(CN5CCC(c6c(F)cc(C7CCC(=O)NC7=O)cc6F)CC5)cc4)cc23)ccc1CNC(=O)c1noc(C(C)(C)C)n1 (stereo not drawn) [Example 10, 5-tert-butyl-N-[[4-[6-[4-[[4-[4-(2,6-dioxo-3-piperidyl)-2,6-difluoro-phenyl]-1-piperidyl]methyl]phenyl]pyrrolo[2,1-f][1,2,4]triazin-4-yl]-2-methyl-phenyl]methyl]-1,2,4-oxadiazole-3-carboxamide] | < 100 nM
10 | CC(C)(C)c1nc(C(=O)NCc2ccc(-c3ncnn4cc(-c5ccc(CN6CCC(c7ccc(NC8CCC(=O)NC8=O)cn7)CC6)cc5)cc34)cc2F)no1 (stereo not drawn) [Example 45, 5-tert-butyl-N-[[4-[6-[4-[[4-[5-[(2,6-dioxo-3-piperidyl)amino]-2-pyridyl]-1-piperidyl]methyl]phenyl]pyrrolo[2,1-f][1,2,4]triazin-4-yl]-2-fluoro-phenyl]methyl]-1,2,4-oxadiazole-3-carboxamide] | < 100 nM

Continued, values first:

Row | DC50 | SMILES
11 | < 100 nM | CC(C)(C)c1nc(C(=O)NCc2ccc(-c3ncnn4cc(CCCCN5CCC(c6ccc(NC7CCC(=O)NC7=O)cn6)CC5)cc34)cc2F)no1 (stereo not drawn) [Example 134, 5-tert-butyl-N-[[4-[6-[4-[4-[5-[(2,6-dioxo-3-piperidyl)amino]-2-pyridyl]-1-piperidyl]butyl]pyrrolo[2,1-f][1,2,4]triazin-4-yl]-2-fluoro-phenyl]methyl]-1,2,4-oxadiazole-3-carboxamide]
12 | < 100 nM | Cc1cc(-c2ccnn3cc(-c4ccc(CN5CCC(c6ccc(NC7CCC(=O)NC7=O)cc6)CC5)cc4)cc23)ccc1CNC(=O)c1noc(C(C)(C)C)n1 (stereo not drawn) [Example 154, 5-tert-butyl-N-[[4-[6-[4-[[4-[4-[(2,6-dioxo-3-piperidyl)amino]phenyl]-1-piperidyl]methyl]phenyl]pyrrolo[1,2-b]pyridazin-4-yl]-2-methyl-phenyl]methyl]-1,2,4-oxadiazole-3-carboxamide]
13 | > 1000 nM | Cc1cc(-c2ncnn3cc(N4CCN(C(=O)c5cn(CCNC(=O)c6ccc(OC7CCC(=O)NC7=O)cc6)nn5)CC4)cc23)ccc1CNC(=O)c1noc(C(C)(C)C)n1 (stereo not drawn) [Example 177, 5-(tert-butyl)-N-(4-(6-(4-(1-(2-(4-((2,6-dioxopiperidin-3-yl)oxy)benzamido)ethyl)-1H-1,2,3-triazole-4-carbonyl)piperazin-1-yl)pyrrolo[2,1-f][1,2,4]triazin-4-yl)-2-methylbenzyl)-1,2,4-oxadiazole-3-carboxamide]
14 | < 100 nM | CO[C@H]1CN(CCc2cc3c(-c4ccc(CNC(=O)c5noc(C(C)(C)C)n5)c(C)c4)ncnn3c2)CC[C@H]1c1ccc2c(N3CCC(=O)NC3=O)nn(C)c2c1 (single isomer, unassigned) [Example 262]
15 | > 1000 nM | Cc1cc(-c2ncnn3cc(CCN4CCC(c5ccc6c(N7CCC(=O)NC7=O)noc6c5)CC4)cc23)ccc1CNC(=O)c1noc(C(C)(C)C)n1 [Example 272, 5-(tert-butyl)-N-(4-(6-(2-(4-(3-(2,4-dioxotetrahydropyrimidin-1(2H)-yl)benzo[d]isoxazol-6-yl)piperidin-1-yl)ethyl)pyrrolo[2,1-f][1,2,4]triazin-4-yl)-2-methylbenzyl)-1,2,4-oxadiazole-3-carboxamide]
16 | < 100 nM | Cc1cc(-c2ncnn3cc(COCCN4CCC(c5ccc(C6CCC(=O)NC6=O)cc5)CC4)cc23)ccc1CNC(=O)c1noc(C(C)(C)C)n1 (stereo not drawn) [Example 144, 5-tert-butyl-N-[[4-[6-[2-[4-[4-(2,6-dioxo-3-piperidyl)phenyl]-1-piperidyl]ethoxymethyl]pyrrolo[2,1-f][1,2,4]triazin-4-yl]-2-methyl-phenyl]methyl]-1,2,4-oxadiazole-3-carboxamide]
17 | 100 to 500 nM | CC(C)(C)c1nc(C(=O)NCc2ccc(-c3ncnn4cc(CCC(F)(F)CN5CCC(c6ccc(C7CCC(=O)NC7=O)cc6)CC5)cc34)cc2F)no1 (stereo not drawn) [Example 169, 5-tert-butyl-N-[[4-[6-[4-[4-[4-(2,6-dioxo-3-piperidyl)phenyl]-1-piperidyl]-3,3-difluoro-butyl]pyrrolo[2,1-f][1,2,4]triazin-4-yl]-2-fluoro-phenyl]methyl]-1,2,4-oxadiazole-3-carboxamide]
18 | < 100 nM | Cc1cc(-c2ncnn3cc(-c4ccc(C(=O)N[C@H](C)c5cccc(NC6CCC(=O)NC6=O)c5)cc4)cc23)ccc1CNC(=O)c1noc(C(C)(C)C)n1 (stereo partly drawn) [Example 199, 5-(tert-butyl)-N-(4-(6-(4-(((1R)-1-(3-((2,6-dioxopiperidin-3-yl)amino)phenyl)ethyl)carbamoyl)phenyl)pyrrolo[2,1-f] [1,2,4]triazin-4-yl)-2-methylbenzyl)-1,2,4-oxadiazole-3-carboxamide]
